Patent US11129870B2, “Compositions and methods for uncoupling TrkB receptor from PLC gamma 1 for the treatment of epilepsy and anxiety-like disorder” (DUKE UNIVERSITY, priority 2010, dated 2021)
Where no end group is shown, it is not given here. [ ]: non-standard residue; d: D form. pY = N[C@@H](Cc1ccc(OP(=O)(O)O)cc1)C(=O)O

How the values were obtained:
[1] = tested on: hippocampal neurons (CA3b); assay: NeuN and GFAP immunostaining of hippocampal CA3b 10 weeks after SE; type: in vivo, mouse
Text: Neurons and astrocytes were visualized using antibodies against neuronal nuclei (mouse monoclonal to NeuN, 1:500; Millipore) and glial fibrillary acidic protein (rabbit polyclonal to GFAP, 1:1000; Sigma) detected with Alexafluor 488 coupled anti-mouse and Alexafluor 594 coupled anti-rabbit secondary antibodies (Molecular Probes), respectively. Images were captured using a Leica TCS SL confocal microscopy system equipped with a 63× oil-immersion objective lens. NeuN-positive cell counting was performed by an investigator blinded to the genotype and treatment conditions with ImageJ software (Ferreira, T. et al., (2011). The Image J User Guide) in a 260×260 μm field within the CA3b pyramidal cell layer. Mean counts were obtained from two adjacent rostral and two adjacent middle hippocampal sections ipsilateral to the infused amygdala.
Ten weeks following SE, mice were anesthetized with pentobarbital (200 mg/kg, i.p.) and underwent intra-cardiac perfusion with PBS containing heparin (5 U/ml) followed by 4% paraformaldehyde. Brains were removed, frozen by slow immersion in isopentane chilled in dry ice, cryoprotected, and sectioned. Serial 40 μm coronal sections were cut through the forebrain spanning the entire hippocampus. Adjacent sections at two levels relative to bregma (˜1.68 mm posterior designated “rostral”) or (˜2.32 mm posterior designated “middle”) were stained for NeuN and GFAP as previously described (Mouri, G. et al., (2008) Brain Res 1213:140-151) and mean counts of NeuN positive cells were obtained from two adjacent rostral and two adjacent middle hippocampal sections ipsilateral to the infused amygdala by an observer blinded to treatment.

[2] = tested on: kainic acid-induced status epilepticus; assay: Status epilepticus induced by kainic acid infusion into amygdala, peptide given i.v. before KA; type: in vivo, mouse
Procedure: FIG. 15: Continuous limbic and tonic-clonic seizures (status epilepticus) were induced in awake, adult male WT C57BL/6 mice weighing 20-25 g by unilateral stereotaxic microinjection of 0.3 μg kainic acid (KA) in a volume of 0.2 μl PBS, pH 7.4, into the right basolateral amygdala nucleus. Seven to nine days prior to KA infusion, a guide cannula was placed in the right amygdala under pentobarbital anesthesia using the following stereotactic coordinates relative to bregma: AP, −0.94 mm; ML, −2.85 mm; and DV, −3.75 mm (AP, anterior-posterior; ML, medio-lateral; DV, dorso-ventral); additionally, a bipolar EEG recording electrode was implanted into contralateral dorsal hippocampus: AP, −2.00 mm; ML, 1.60 mm; and DV, −1.53 mm. Phospho-Tat-pTrkBY816 or Scr-phospho-Tat-pTrkBY816 was injected intravenously through tail vein before amygdala KA infusion. EEG and mice behavior were recorded by EEG recording device and video camera respectively for 45 min following infusion of KA. Design of the time course and dose response experiments are presented in top and bottom panels respectively.
As described previously, microinjection of kainic acid into the right amygdala of awake, adult mice reliably induces continuous limbic and clonic motor seizures accompanied by electrographic evidence of seizure activity as detected by EEG recording electrode in the contralateral hippocampus. Status epilepticus is terminated by intraperitoneal administration of diazepam 45 minutes following infusion of kainic acid.
We asked whether intravenous infusion of Tat-pTrkBY816 via tail vein inhibited status epilepticus induced by microinjection of kainic acid into the right amygdala (FIG. 15). […] The inhibition of status epilepticus was also dose dependent. […] Whereas a dose of 1 mg/kg of Tat-pTrkBY816 was ineffective, doses of 3 mg/kg and 10 mg/kg effected a striking inhibition such that status epilepticus was prevented in at least 70% of animals (FIG. 17, top). By contrast, kainic acid induced status epilepticus in all animals pretreated with the control scr-Tat-pTrkBY816 regardless of dose (FIG. 17, top).
Surgery and microinfusion studies provided in Examples 10-14 were performed as described here. Surgery and microinfusion of KA into right amygdala of adult mice was performed as previously described (Liu, G. et al., (2013) Neuron 79:31-38). Briefly, mice were anesthetized with pentobarbital (60 mg/kg, intraperitoneally [i.p.]) and placed in a stereotaxic frame. A guide cannula was stereotactically placed above the right amygdala (coordinates from bregma: AP=−1.2 mm; ML=3.0 mm). A bipolar electrode was placed in the left dorsal hippocampus (coordinates from bregma: AP=−2.0 mm; ML=−1.6 mm; DV=−1.5 mm). A ground electrode connected to a screw was placed in the skull above the cerebellum. After a postoperative recovery period of 7 days, the animal was gently restrained and an infusion cannula was inserted into the right amygdala through the guide cannula at the depth of 3.7 mm below dura. Either KA (0.3 μg in 0.5 μl PBS) or vehicle control (0.5 μl of PBS) was infused into the right basolateral amygdala at the rate of 0.11 μl per minute. The infusion cannula was left in the right amygdala for two additional minutes before being withdrawn from the guide cannula. Animals were housed individually for time locked electroencephalogram (EEG) telemetry and video monitoring with food and water ad libitum.
Emergence of SE was typically evident in EEG recordings 5-10 min after KA infusion. The behavioral seizures associated with electrographic seizures typically consisted of immobility, followed by facial automatisms, unilateral or bilateral forelimb clonus, and whole body clonus. Tonic-clonic seizures with loss of posture and jumping also occurred during the seizures (Mouri, G. et al., (2008) Brain Res 1213:140-151). For experiments in which p816 or Scr was administered prior to SE, mice were monitored for 45 min following KA infusion. […]

Akt = assay: BDNF-mediated increase of p-Akt in cultured cortical neurons (western blot); type: cell-based, rat; settings: 10 μM, 10-120 min pretreatment
ERK = assay: BDNF-mediated increase of p-ERK in cultured cortical neurons (western blot); type: cell-based, rat; settings: 10 μM, 10-120 min pretreatment

YGRKKRRQRRRLVApYQLKIAPNDLS (YGRKKRRQRRRLVA[pY]QLKIAPNDLS) [Scr, reference compound]
reduction of neurons (NeuN immunoreactive cells) in CA3b hippocampus ([1]; compared to PBS-infused controls): ~50% | animals in which kainic acid induced status epilepticus ([2]; 10 mg/kg i.v. at different times prior to KA): 23 of 24 | KA-induced seizures following i.v. infusion of peptide ([2]; i.v. prior to KA infusion into amygdala): prolonged convulsive motor and electrographic seizures | animals in which kainic acid induced status epilepticus ([2]; regardless of dose (1, 3, 10 mg/kg), six hours prior to KA): all animals | BDNF-mediated increase of the p-Akt/Akt ratio (quantified, FIG. 11) (Akt): Neither the Phospho-Tat-TrkBY816 nor the Scr-phospho-Tat-TrkBY816 peptide inhibited | BDNF-mediated increase of the p-ERK/ERK ratio (quantified, FIG. 12) (ERK): Neither the Phospho-Tat-TrkBY816 nor the Scr-phospho-Tat-TrkBY816 peptide inhibited

YGRKKRRQRRR-LQNLAKASPVpYLDI (YGRKKRRQRRRLQNLAKASPV[pY]LDI) [pY816]
reactive gliosis (enlarged GFAP-immunoreactive cells) in CA3b [1]: attenuated | reduction of neuron loss ([1]; compared to Scr treatment): ~30% | inhibition of status epilepticus ([2]; 1 mg/kg i.v., six hours prior to KA): ineffective | animals in which status epilepticus was prevented ([2]; 3 mg/kg i.v., six hours prior to KA): at least 70% | earliest time at which inhibitory effects were evident following i.v. infusion ([2]; 10 mg/kg i.v.): 10 min | inhibition of status epilepticus remitted by ([2]; 10 mg/kg i.v.): ≤ 72 h | peak of inhibition of status epilepticus (pretreatment interval) ([2]; 10 mg/kg i.v.): 0.5 h | persistence of inhibition of status epilepticus ([2]; 10 mg/kg i.v.): 24 h | return of seizure inhibition to control levels by ([2]; 10 mg/kg i.v.): ≤ 72 h | inhibition of status epilepticus (time course) ([2]; 10 mg/kg i.v., 0.16-72 hr prior to KA): striking time dependent inhibition of status epilepticus | status epilepticus at 0.5 hour pretreatment ([2]; 10 mg/kg i.v., 0.5 hour prior to KA): eliminated altogether | maximal inhibition of convulsive motor and electrographic seizures ([2]; 10 mg/kg i.v., 6 hr prior to KA): 90% | latency to the onset of status epilepticus ([2]; 10 mg/kg i.v., compared to scrambled control peptide 10 mg/kg): prolonged | animals in which status epilepticus was prevented ([2]; 10 mg/kg i.v., six hours prior to KA): at least 70% | increase of latency to onset of status epilepticus ([2]; 10 mg/kg i.v., six hours prior to KA, compared to Scr-phospho-Tat-pTrkBY816): 3 fold | inhibition of convulsive motor and electrographic seizures persisting for 24 hr ([2]; 10 mg/kg i.v., up to 24 hr prior to KA): 80-90% | onset of inhibition of status epilepticus (pretreatment interval) ([2]; 10 mg/kg i.v., earliest time tested): 0.16 h | latency to onset of behavioral status epilepticus (dose response) ([2]; 1, 3, 10 mg/kg i.v., six hours prior to KA): increased the latency to onset of behavioral status epilepticus in a dose dependent fashion | BDNF-mediated increase of the p-Akt/Akt ratio (quantified, FIG. 11) (Akt): Neither the Phospho-Tat-TrkBY816 nor the Scr-phospho-Tat-TrkBY816 peptide inhibited | BDNF-mediated increase of the p-ERK/ERK ratio (quantified, FIG. 12) (ERK): Neither the Phospho-Tat-TrkBY816 nor the Scr-phospho-Tat-TrkBY816 peptide inhibited
